From the Kinase Knowledgebase extract (Sharma et al. 2016)
pIC50: −log10 of the molar value.

target: MAPK14 (human) (UniProt Q16539); assay: Inhibition of MAPK14 Kinase Activity
Sequence (Q16539 whole entry, looked up): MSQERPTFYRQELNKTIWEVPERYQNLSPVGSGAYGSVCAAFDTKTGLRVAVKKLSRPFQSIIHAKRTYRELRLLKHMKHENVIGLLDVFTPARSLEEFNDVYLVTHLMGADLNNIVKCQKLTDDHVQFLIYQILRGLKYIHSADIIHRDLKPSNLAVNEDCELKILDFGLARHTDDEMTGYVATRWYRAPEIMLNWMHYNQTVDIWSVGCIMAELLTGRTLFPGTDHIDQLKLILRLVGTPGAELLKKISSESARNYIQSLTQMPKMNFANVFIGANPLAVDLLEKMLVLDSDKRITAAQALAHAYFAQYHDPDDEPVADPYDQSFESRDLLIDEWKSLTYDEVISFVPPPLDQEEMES

pIC50, 7.00 to 9.00:
C[C@H](O)Cn1c(=O)c(Oc2ccc(F)cc2F)cc2cnc(N[C@@H](CO)CCO)nc21, O=c1c(Oc2ccc(F)cc2F)cc2cnc(NC3CCOCC3)nc2n1CCO, CC[C@H](CO)Nc1ncc2cc(Oc3ccc(F)cc3F)c(=O)n(C[C@H](C)O)c2n1, C[C@H](O)Cn1c(=O)c(Oc2ccc(F)cc2F)cc2cnc(N[C@H](CO)CCO)nc21, C[C@H](O)Cn1c(=O)c(Oc2ccc(F)cc2F)cc2cnc(NC3CCCCC3)nc21, C[C@H](O)Cn1c(=O)c(Oc2ccc(F)cc2F)cc2cnc(NC3CC3)nc21, C[C@@H](O)Cn1c(=O)c(Oc2ccc(F)cc2F)cc2cnc(N[C@@H](C)CO)nc21, C[C@H](O)Cn1c(=O)c(Oc2ccc(F)cc2F)cc2cnc(N[C@H](C)CO)nc21, C[C@H](O)CNc1ncc2cc(Oc3ccc(F)cc3F)c(=O)n(C[C@@H](C)O)c2n1, C[C@H](O)Cn1c(=O)c(Oc2ccc(F)cc2F)cc2cnc(NC(C)(C)CO)nc21, C[C@@H](O)Cn1c(=O)c(Oc2ccc(F)cc2F)cc2cnc(NC(C)(C)CO)nc21, COCCC(CCOC)Nc1ncc2cc(Oc3ccc(F)cc3F)c(=O)n(C[C@H](C)O)c2n1, CC(C)CNc1ncc2cc(Oc3ccc(F)cc3F)c(=O)n(C[C@@H](C)O)c2n1, C[C@H](O)Cn1c(=O)c(Oc2ccc(F)cc2F)cc2cnc(NC(CCO)CCO)nc21, C[C@H](O)Cn1c(=O)c(Oc2ccc(F)cc2F)cc2cnc(NCC(C)(C)C)nc21, CNc1ncc2cc(Oc3ccc(F)cc3F)c(=O)n(C[C@@H](C)O)c2n1, C[C@H](O)Cn1c(=O)c(Oc2ccc(F)cc2F)cc2cnc(NC3CCN(S(C)(=O)=O)CC3)nc21, CC(=O)Cn1c(=O)c(Oc2ccc(F)cc2F)cc2cnc(N[C@H](C)CO)nc21, CC(C)Nc1ncc2cc(Oc3ccc(F)cc3F)c(=O)n(C[C@@H](C)O)c2n1, C[C@@H](O)Cn1c(=O)c(Oc2ccc(F)cc2F)cc2cnc(NC3CC3)nc21, C[C@@H](O)Cn1c(=O)c(Oc2ccc(F)cc2F)cc2cnc(NC3CCC3)nc21, CC(O)Cn1c(=O)c(Oc2ccc(F)cc2F)cc2cnc(NC3CCOCC3)nc21 (stereo unspecified), CC(=O)Cn1c(=O)c(Oc2ccc(F)cc2F)cc2cnc(N[C@@H](C)CO)nc21, CC[C@H](C)Nc1ncc2cc(Oc3ccc(F)cc3F)c(=O)n(C[C@H](C)O)c2n1, CC[C@@H](C)Nc1ncc2cc(Oc3ccc(F)cc3F)c(=O)n(C[C@H](C)O)c2n1, C[C@H](O)Cn1c(=O)c(Oc2ccc(F)cc2F)cc2cnc(NC3CCCC3)nc21, COC[C@H](C)Nc1ncc2cc(Oc3ccc(F)cc3F)c(=O)n(C[C@H](C)O)c2n1, C[C@H](O)Cn1c(=O)c(Oc2ccc(F)cc2F)cc2cnc(NC3CCOCC3)nc21, CC[C@H](C)Nc1ncc2cc(Oc3ccc(F)cc3F)c(=O)n(C[C@@H](C)O)c2n1, C[C@H](O)Cn1c(=O)c(Oc2ccc(F)cc2F)cc2cnc(NC(CO)CO)nc21, C[C@@H](O)Cn1c(=O)c(Oc2ccc(F)cc2F)cc2cnc(NCC3CC3)nc21, C[C@@H](O)CNc1ncc2cc(Oc3ccc(F)cc3F)c(=O)n(C[C@@H](C)O)c2n1, C[C@H](O)Cn1c(=O)c(Oc2ccc(F)cc2F)cc2cnc(N[C@@H](C)CO)nc21, C[C@@H](O)Cn1c(=O)c(Oc2ccc(F)cc2F)cc2cnc(NCC(C)(C)C)nc21, C[C@H](CO)Nc1ncc2cc(Oc3ccc(F)cc3F)c(=O)n(C[C@@H](C)O)c2n1, C[C@H](O)Cn1c(=O)c(Oc2ccc(F)cc2F)cc2cnc(NC[C@@H](C)O)nc21, CC[C@H](CO)Nc1ncc2cc(Oc3ccc(F)cc3F)c(=O)n(C[C@@H](C)O)c2n1, C[C@H](O)CNc1ncc2cc(Oc3ccc(F)cc3F)c(=O)n(C[C@H](C)O)c2n1, COC[C@H](C)Nc1ncc2cc(Oc3ccc(F)cc3F)c(=O)n(C(CCO)CCO)c2n1, CC[C@@H](CO)Nc1ncc2cc(Oc3ccc(F)cc3F)c(=O)n(C[C@H](C)O)c2n1, CC[C@@H](C)Nc1ncc2cc(Oc3ccc(F)cc3F)c(=O)n(C[C@@H](C)O)c2n1, CCNc1ncc2cc(Oc3ccc(F)cc3F)c(=O)n(C[C@@H](C)O)c2n1, C[C@@H](O)Cn1c(=O)c(Oc2ccc(F)cc2F)cc2cnc(NC3CCOCC3)nc21, CC(C)Nc1ncc2cc(Oc3ccc(F)cc3F)c(=O)n(C[C@H](C)O)c2n1, C[C@H](O)Cn1c(=O)c(Oc2ccc(F)cc2F)cc2cnc(N[C@H](CO)[C@@H](C)O)nc21, C[C@H](Nc1ncc2cc(Oc3ccc(F)cc3F)c(=O)n(C[C@@H](C)O)c2n1)C(C)(C)O
